Reference: patent US6489352B2, “Conformationally constrained compounds as pharmaceutical agents” (Warner-Lambert Company, priority 1998, dated 2002)
Counter-ions that a name gives are not always drawn.

Experiments:
[1] = biological target: T1, α2δ subunit derived from porcine brain tissue (Sus scrofa, UniProt A0A287BIN3); experiment: radioligand binding assay using [3H]gabapentin and the α2δ subunit; settings: read-out: IC50 (μM) at α2δ Binding Site
T1 construct: the α2δ subunit derived from porcine brain tissue was used; from tissue; host or cells: porcine brain tissue

[2] = tested on: carrageenin-induced hyperalgesia in the rat paw; experiment: Carrageenin-induced hyperalgesia, rat paw pressure test (Randall-Selitto); assay type: in vivo, rat (male Sprague-Dawley); settings: dosed orally at 30 mg/kg
Experimental: Carrageenin-Induced Hyperalgesia
Nociceptive pressure thresholds were measured in the rat paw pressure test using an analgesimeter (Randall-Selitto method: Randall L. O. and Selitto J. J., “A method for measurement of analgesic activity on inflamed tissue,” Arch. Int. Pharmacodyn., 1957;4:409-419). Male Sprague-Dawley rats (70-90 g) were trained on this apparatus before the test day. Pressure was gradually applied to the hind paw of each rat and nociceptive thresholds were determined as the pressure (g) required to elicit paw withdrawal. A cutoff point of 250 g was used to prevent any tissue damage to the paw. On the test day, two to three baseline measurements were taken before animals were administered 100 μL of 2% carrageenin by intraplantar injection into the right hind paw.
(R)-2-Aza-spiro[4.5]decane-4-carboxylic acid hydrochloride was tested in the above carrageenan-induced hyperalgesia model. The compound was dosed orally at 30 mg/kg, and 1 hour postdose gave a percent of maximum possible effect (MPE) of 53%. At 2 hours postdose, it gave only 4.6% of MPE.

T1 sequence (A0A287BIN3 25-1109): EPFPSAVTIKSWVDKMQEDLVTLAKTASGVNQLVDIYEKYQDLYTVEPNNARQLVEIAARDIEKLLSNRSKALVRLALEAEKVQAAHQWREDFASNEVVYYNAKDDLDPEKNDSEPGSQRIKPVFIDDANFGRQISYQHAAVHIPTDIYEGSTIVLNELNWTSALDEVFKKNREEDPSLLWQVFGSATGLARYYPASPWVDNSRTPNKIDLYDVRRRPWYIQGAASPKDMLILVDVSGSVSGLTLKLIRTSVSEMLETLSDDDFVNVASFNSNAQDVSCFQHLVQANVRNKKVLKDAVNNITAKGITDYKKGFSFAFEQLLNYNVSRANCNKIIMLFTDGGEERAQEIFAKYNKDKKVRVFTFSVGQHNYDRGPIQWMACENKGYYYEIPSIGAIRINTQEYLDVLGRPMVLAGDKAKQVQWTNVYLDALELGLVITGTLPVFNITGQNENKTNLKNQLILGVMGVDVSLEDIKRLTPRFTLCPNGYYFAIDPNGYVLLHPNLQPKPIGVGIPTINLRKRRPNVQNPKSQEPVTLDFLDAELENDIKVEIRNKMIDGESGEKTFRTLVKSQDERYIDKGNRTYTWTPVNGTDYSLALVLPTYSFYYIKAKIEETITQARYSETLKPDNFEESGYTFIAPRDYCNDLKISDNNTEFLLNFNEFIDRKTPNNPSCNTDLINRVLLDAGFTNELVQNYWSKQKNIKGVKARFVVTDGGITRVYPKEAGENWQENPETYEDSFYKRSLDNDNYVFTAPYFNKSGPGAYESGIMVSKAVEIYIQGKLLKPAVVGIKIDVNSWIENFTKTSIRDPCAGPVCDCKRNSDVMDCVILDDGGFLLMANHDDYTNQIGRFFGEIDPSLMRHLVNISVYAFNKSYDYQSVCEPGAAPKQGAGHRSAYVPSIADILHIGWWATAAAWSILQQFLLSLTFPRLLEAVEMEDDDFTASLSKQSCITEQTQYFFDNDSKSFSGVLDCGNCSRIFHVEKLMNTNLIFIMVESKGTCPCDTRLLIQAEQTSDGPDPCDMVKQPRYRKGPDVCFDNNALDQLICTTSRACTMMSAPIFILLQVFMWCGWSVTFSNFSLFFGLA

Row | SMILES | IC50 [1] [µM] | melting point [°C] | percent of maximum possible effect (MPE) ([2]; 1 hour postdose) [%] | percent of maximum possible effect (MPE) ([2]; 2 hours postdose) [%]
1 | Cl.O=C(O)[C@H]1CNCC12CCCCC2 [(R)-2-Aza-spiro[4.5]decane-4-carboxylic acid hydrochloride] | 0.16 |  | 53 | 4.6
2 | O=C(O)C1CNCC12C1CCCC2CCC1 (stereo not drawn) [Spiro[bicyclo[3.3.1]nonane-9,3′-pyrrolidine]-4′-carboxylic acid] | 0.57 |  |  | 
3 | O=C(O)C1CNCC12C1CC3CC(C1)CC2C3 (stereo not drawn) [Spiro[pyrrolidine-3,2′-tricyclo[3.3.1.1^3,7]decane]-4-carboxylic acid] | 0.42 |  |  | 

Now from value to molecule, other results behind:

Row | IC50 [1] [µM] | melting point [°C] | SMILES | percent of maximum possible effect (MPE) ([2]; 1 hour postdose) [%] | percent of maximum possible effect (MPE) ([2]; 2 hours postdose) [%]
4 | 1.5 | 163 to 165 | Cl.O=C(O)C1NCC12CCCCC2 (racemic) [(±)-2-Aza-spiro[3.5]nonane-1-carboxylic acid hydrochloride] |  | 
5 | 0.35 |  | O=C(O)C1CNCC12CCCCC2 (racemic) [(±)-2-Aza-spiro[4.5]decane-4-carboxylic acid hydrochloride] |  | 
6 | > 10 |  | O=C(O)[C@@H]1CNCC12CCCCC2 [(S)-2-Aza-spiro[4.5]decane-4-carboxylic acid hydrochloride] |  | 
